Assay results from ChEMBL document CHEMBL4387741, “Optimization of novel reversible Bruton's tyrosine kinase inhibitors identified using Tethering-fragment-based screens” (Bioorg Med Chem, 2019).

How the values were obtained:
[1] = system: ALK tyrosine kinase receptor (Homo sapiens), Q9UM73 [L1196M]; assay: Inhibition of wild-type human partial length ALK L1196M mutant (I1088 to E1409 residues) expressed in mammalian expression system at 1 uM by Kinomescan method relative to control
[2] = biological target: Ankyrin repeat and protein kinase domain-containing protein 1 (Homo sapiens) (UniProt Q8NFD2); assay: Inhibition of wild-type human partial length ANKK1 (M1 to A305 residues) expressed in mammalian expression system at 1 uM by Kinomescan method relative to control
[3] = biological target: Calcium/calmodulin-dependent protein kinase type II subunit gamma (Homo sapiens) (UniProt Q13555); assay: Inhibition of wild-type human partial length CAMK2G (R9 to A303 residues) expressed in bacterial expression system at 1 uM by Kinomescan method relative to control
[4] = biological target: Dual specificity protein kinase CLK1 (Homo sapiens) (UniProt P49759); assay: Inhibition of wild-type human full length CLK1 (M1 to I484 residues) expressed in bacterial expression system at 1 uM by Kinomescan method relative to control
[5] = biological target: Casein kinase I isoform alpha (Homo sapiens) (UniProt P48729); assay: Inhibition of wild-type human partial length CSNK1A1 (M1 to L450 residues) expressed in mammalian expression system at 1 uM by Kinomescan method relative to control
Chain of Casein kinase I isoform alpha (Homo sapiens) (P48729 2-337 limits assumed): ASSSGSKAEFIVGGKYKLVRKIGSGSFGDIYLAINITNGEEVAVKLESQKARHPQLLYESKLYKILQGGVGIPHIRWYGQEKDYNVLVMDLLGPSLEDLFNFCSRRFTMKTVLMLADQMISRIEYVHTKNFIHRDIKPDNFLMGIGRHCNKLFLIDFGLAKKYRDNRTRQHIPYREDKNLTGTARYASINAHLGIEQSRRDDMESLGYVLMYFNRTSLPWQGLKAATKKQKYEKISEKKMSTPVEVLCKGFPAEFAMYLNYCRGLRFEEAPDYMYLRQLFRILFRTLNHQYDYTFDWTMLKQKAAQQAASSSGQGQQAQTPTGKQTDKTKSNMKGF

[6] = biological target: Homeodomain-interacting protein kinase 1 (Homo sapiens) (UniProt Q86Z02); assay: Inhibition of wild-type human partial length HIPK1 (M146 to I555 residues) expressed in mammalian expression system at 1 uM by Kinomescan method relative to control
[7] = biological target: Dual specificity mitogen-activated protein kinase kinase 3 (Homo sapiens) (UniProt P46734); assay: Inhibition of wild-type human full length MEK3 (M1 to S318 residues) expressed in mammalian expression system at 1 uM by Kinomescan method relative to control
[8] = system: Hepatocyte growth factor receptor (Homo sapiens), P08581 [M1250T]; assay: Inhibition of human partial length MET M1250T mutant (D1010 to S1367 residues) expressed in bacterial expression system at 1 uM by Kinomescan method relative to control
[9] = biological target: Serine/threonine-protein kinase 26 (Homo sapiens) (UniProt Q9P289); assay: Inhibition of wild-type human full length MST4 (M1 to P416 residues) expressed in mammalian expression system at 1 uM by Kinomescan method relative to control
Chain of Serine/threonine-protein kinase 26 (Homo sapiens) (Q9P289 2-416 limits assumed): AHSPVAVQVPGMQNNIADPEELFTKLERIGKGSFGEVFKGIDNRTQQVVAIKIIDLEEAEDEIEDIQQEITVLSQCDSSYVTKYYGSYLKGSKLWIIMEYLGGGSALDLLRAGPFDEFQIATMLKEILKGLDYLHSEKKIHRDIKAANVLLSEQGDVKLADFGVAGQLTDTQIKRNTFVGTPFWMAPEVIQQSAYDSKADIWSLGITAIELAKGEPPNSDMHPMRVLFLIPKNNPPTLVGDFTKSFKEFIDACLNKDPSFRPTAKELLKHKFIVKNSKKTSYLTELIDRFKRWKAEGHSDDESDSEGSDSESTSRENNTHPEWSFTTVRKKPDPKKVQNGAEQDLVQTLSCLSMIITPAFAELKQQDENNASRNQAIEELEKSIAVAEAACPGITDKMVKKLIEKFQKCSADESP

[10] = biological target: Serine/threonine-protein kinase 38-like (Homo sapiens) (UniProt Q9Y2H1); assay: Inhibition of wild-type human partial length NDR2 (N34 to E447 residues) expressed in bacterial expression system at 1 uM by Kinomescan method relative to control
[11] = biological target: Phosphatidylinositol 5-phosphate 4-kinase type-2 gamma (Homo sapiens) (UniProt Q8TBX8); assay: Inhibition of wild-type human partial length PIP5K2C (M1 to A421 residues) expressed in mammalian expression system at 1 uM by Kinomescan method relative to control
Chain of Phosphatidylinositol 5-phosphate 4-kinase type-2 gamma (Homo sapiens) (Q8TBX8 whole entry, the tested form may be a part): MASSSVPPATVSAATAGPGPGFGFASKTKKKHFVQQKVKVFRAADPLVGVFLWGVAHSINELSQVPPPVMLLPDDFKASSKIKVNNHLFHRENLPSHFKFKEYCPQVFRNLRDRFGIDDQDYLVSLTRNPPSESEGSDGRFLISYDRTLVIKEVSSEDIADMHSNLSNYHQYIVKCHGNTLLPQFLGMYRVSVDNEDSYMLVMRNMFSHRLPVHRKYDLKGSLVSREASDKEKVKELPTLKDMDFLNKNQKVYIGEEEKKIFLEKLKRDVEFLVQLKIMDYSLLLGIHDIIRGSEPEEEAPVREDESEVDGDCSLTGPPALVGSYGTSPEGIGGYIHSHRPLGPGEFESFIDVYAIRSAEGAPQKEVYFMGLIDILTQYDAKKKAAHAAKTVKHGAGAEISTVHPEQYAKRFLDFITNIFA

[12] = biological target: Ribosomal protein S6 kinase alpha-6 (Homo sapiens) (UniProt Q9UK32); assay: Inhibition of wild-type human partial length C-terminal RSK4 kinase domain 2 (I401 to Y711 residues) expressed in bacterial expression system at 1 uM by Kinomescan method relative to control
Chain of Ribosomal protein S6 kinase alpha-6 (Homo sapiens) (Q9UK32 whole entry, the tested form may be a part): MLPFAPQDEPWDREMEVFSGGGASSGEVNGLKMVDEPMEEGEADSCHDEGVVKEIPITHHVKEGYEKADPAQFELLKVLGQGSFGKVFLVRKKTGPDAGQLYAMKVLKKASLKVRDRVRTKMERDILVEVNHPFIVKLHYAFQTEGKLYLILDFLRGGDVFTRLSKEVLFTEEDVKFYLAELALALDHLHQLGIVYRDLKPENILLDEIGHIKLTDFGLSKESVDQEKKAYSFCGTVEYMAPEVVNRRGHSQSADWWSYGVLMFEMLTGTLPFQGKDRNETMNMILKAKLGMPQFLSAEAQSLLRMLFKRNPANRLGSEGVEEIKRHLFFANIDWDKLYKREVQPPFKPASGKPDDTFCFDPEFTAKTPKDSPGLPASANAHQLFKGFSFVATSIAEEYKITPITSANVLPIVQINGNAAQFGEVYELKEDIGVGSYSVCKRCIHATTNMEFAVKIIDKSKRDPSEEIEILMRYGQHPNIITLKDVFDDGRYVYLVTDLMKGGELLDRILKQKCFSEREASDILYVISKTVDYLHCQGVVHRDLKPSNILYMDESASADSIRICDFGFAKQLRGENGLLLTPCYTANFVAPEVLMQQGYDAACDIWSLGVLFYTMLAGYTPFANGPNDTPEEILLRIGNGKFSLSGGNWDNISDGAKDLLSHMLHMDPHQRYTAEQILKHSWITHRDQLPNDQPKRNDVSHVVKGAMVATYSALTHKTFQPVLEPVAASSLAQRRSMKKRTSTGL

[13] = biological target: Dual specificity testis-specific protein kinase 1 (Homo sapiens) (UniProt Q15569); assay: Inhibition of wild-type human full length TESK1 (R37 to S626 residues) expressed in bacterial expression system at 1 uM by Kinomescan method relative to control
Chain of Dual specificity testis-specific protein kinase 1 (Homo sapiens) (Q15569 whole entry, looked up, the tested form may be a part): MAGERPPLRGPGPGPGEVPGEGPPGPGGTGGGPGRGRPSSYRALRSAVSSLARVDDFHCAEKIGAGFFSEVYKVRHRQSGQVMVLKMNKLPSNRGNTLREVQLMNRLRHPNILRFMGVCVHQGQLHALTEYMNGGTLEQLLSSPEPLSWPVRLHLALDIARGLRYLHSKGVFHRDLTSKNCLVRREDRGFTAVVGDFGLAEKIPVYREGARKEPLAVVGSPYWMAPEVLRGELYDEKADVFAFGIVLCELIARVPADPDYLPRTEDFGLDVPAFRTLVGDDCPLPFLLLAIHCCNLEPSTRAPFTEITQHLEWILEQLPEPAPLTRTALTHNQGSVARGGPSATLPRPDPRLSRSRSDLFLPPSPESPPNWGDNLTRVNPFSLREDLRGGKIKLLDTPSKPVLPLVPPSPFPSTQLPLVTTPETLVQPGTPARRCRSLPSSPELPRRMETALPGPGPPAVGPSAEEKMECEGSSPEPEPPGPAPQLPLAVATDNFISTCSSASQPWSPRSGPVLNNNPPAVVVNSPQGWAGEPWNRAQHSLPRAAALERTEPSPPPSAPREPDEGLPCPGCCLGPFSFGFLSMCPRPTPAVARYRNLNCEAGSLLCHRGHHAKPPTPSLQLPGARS

[14] = system: ALK tyrosine kinase receptor (Homo sapiens), Q9UM73 [C1156Y]; assay: Inhibition of wild-type human partial length ALK C1156Y mutant (I1088 to E1409 residues) expressed in mammalian expression system at 10 uM by Kinomescan method relative to control
[15] = biological target: NUAK family SNF1-like kinase 1 (Homo sapiens) (UniProt O60285); assay: Inhibition of wild-type human partial length ARK5 (E25 to I332 residues) expressed in bacterial expression system at 10 uM by Kinomescan method relative to control
[16] = biological target: Peripheral plasma membrane protein CASK (Homo sapiens) (UniProt O14936); assay: Inhibition of wild-type human partial length CASK (M1 to H315 residues) expressed in mammalian expression system at 10 uM by Kinomescan method relative to control
Chain of Peripheral plasma membrane protein CASK (Homo sapiens) (O14936 whole entry, the tested form may be a part, canonical isoform): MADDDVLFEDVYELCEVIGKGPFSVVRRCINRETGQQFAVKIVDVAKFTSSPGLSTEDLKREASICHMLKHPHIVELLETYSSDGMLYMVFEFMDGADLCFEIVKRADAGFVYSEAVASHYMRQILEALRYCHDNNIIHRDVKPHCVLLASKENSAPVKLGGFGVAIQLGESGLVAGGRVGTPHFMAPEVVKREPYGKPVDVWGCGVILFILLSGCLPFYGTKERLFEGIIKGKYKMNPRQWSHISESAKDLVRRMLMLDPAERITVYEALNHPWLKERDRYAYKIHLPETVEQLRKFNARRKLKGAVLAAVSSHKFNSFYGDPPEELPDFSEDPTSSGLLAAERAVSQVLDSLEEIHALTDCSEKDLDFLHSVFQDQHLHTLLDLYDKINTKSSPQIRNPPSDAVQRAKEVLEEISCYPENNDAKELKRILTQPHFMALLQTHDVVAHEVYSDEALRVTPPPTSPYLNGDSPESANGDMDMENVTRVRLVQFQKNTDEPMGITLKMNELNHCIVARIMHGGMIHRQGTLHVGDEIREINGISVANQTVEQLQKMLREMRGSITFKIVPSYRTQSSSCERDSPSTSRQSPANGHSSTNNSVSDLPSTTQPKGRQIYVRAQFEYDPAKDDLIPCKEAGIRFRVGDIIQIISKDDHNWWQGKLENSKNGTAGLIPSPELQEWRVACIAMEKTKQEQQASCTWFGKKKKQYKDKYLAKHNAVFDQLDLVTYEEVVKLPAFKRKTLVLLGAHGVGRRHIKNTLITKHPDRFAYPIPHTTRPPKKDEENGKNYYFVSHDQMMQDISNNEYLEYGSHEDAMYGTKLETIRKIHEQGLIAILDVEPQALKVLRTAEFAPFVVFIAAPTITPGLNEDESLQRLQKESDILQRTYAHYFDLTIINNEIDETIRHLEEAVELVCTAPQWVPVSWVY

[17] = biological target: Casein kinase I isoform gamma-3 (Homo sapiens) (UniProt Q9Y6M4); assay: Inhibition of wild-type human full length CSNK1G3 (M1 to K447 residues) expressed in bacterial expression system at 10 uM by Kinomescan method relative to control
Chain of Casein kinase I isoform gamma-3 (Homo sapiens) (Q9Y6M4 whole entry, looked up, the tested form may be a part, canonical isoform): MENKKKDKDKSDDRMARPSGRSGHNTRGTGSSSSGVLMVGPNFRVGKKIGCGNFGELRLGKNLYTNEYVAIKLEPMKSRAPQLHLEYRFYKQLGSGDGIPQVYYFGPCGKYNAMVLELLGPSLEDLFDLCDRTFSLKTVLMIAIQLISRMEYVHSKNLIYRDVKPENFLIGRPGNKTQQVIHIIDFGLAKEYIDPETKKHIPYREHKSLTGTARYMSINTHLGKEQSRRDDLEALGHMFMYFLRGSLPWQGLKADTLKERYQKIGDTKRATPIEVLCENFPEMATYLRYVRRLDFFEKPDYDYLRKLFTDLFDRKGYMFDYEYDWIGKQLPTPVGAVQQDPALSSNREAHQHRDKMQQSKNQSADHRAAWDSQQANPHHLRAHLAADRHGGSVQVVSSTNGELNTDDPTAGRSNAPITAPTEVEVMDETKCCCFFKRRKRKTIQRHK

[18] = biological target: Receptor tyrosine-protein kinase erbB-2 (Homo sapiens) (UniProt P04626); assay: Inhibition of wild-type human partial length ERBB2 (K646 to V1225 residues) expressed in mammalian expression system at 10 uM by Kinomescan method relative to control
[19] = system: Receptor-type tyrosine-protein kinase FLT3 (Homo sapiens), P36888 [R834Q]; assay: Inhibition of human partial length FLT3 R834Q mutant (V592 to Y969 residues) expressed in mammalian expression system at 10 uM by Kinomescan method relative to control
[20] = biological target: Tyrosine-protein kinase ITK/TSK (Homo sapiens) (UniProt Q08881); assay: Inhibition of wild-type human partial length ITK (R335 to L620 residues) expressed in bacterial expression system at 10 uM by Kinomescan method relative to control
[21] = biological target: Dual specificity mitogen-activated protein kinase kinase 7 (Homo sapiens) (UniProt O14733); assay: Inhibition of wild-type human full length MKK7 (M1 to R419 residues) expressed in mammalian expression system at 10 uM by Kinomescan method relative to control
[22] = biological target: Serine/threonine-protein kinase Nek2 (Homo sapiens) (UniProt P51955); assay: Inhibition of wild-type human partial length NEK2 (M1 to K309 residues) expressed in bacterial expression system at 10 uM by Kinomescan method relative to control
Chain of Serine/threonine-protein kinase Nek2 (Homo sapiens) (P51955 whole entry, the tested form may be a part): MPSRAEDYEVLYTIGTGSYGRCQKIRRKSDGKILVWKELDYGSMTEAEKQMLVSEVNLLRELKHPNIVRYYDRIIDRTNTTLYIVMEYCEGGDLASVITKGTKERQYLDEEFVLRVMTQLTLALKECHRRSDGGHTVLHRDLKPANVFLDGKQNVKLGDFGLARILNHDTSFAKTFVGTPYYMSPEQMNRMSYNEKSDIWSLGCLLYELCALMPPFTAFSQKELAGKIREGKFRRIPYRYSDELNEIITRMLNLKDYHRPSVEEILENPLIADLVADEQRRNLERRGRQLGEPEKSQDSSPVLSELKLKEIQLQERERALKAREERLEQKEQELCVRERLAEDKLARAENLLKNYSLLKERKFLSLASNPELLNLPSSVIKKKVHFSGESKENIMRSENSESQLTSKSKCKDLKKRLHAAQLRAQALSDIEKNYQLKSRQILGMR

[23] = biological target: Serine/threonine-protein kinase PAK 1 (Homo sapiens) (UniProt Q13153); assay: Inhibition of wild-type human partial length PAK1 (S149 to H545 residues) expressed in bacterial expression system at 10 uM by Kinomescan method relative to control
Chain of Serine/threonine-protein kinase PAK 1 (Homo sapiens) (Q13153 whole entry, the tested form may be a part): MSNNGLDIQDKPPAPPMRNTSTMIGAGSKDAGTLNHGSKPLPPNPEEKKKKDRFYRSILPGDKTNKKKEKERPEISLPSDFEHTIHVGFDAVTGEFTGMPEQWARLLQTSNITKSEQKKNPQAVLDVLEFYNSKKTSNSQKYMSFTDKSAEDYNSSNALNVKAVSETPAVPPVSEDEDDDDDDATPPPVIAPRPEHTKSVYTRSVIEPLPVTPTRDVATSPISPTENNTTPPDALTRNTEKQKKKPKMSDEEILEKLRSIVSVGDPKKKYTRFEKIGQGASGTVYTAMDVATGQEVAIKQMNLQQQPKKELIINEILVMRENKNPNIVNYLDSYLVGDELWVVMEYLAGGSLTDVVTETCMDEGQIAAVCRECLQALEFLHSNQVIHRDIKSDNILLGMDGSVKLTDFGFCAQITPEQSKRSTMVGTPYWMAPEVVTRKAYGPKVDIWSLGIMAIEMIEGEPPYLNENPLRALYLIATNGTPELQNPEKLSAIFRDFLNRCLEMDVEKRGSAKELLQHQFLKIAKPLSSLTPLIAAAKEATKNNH

[24] = biological target: Platelet-derived growth factor receptor beta (Homo sapiens) (UniProt P09619); assay: Inhibition of wild-type human partial length PDGFRB (V582 to Y1009 residues) expressed in bacterial expression system at 10 uM by Kinomescan method relative to control
[25] = biological target: Phosphatidylinositol 3-kinase catalytic subunit type 3 (Homo sapiens) (UniProt Q8NEB9); assay: Inhibition of wild-type human partial length VPS34 (S282 to H879 residues) expressed in mammalian expression system at 10 uM by Kinomescan method relative to control
[26] = biological target: Mitogen-activated protein kinase kinase kinase 12 (Homo sapiens) (UniProt Q12852); assay: Inhibition of wild-type human full length DLK (M1 to P859 residues) expressed in mammalian expression system at 10 uM by Kinomescan method relative to control

For O=C(Nc1cccc([C@@H]2CN(c3ncnc4[nH]ccc34)CCN2CCO)c1)Nc1c(F)cccc1N1CCCC1, the inhibition [1] was 74%, the inhibition [2] was 100% and the inhibition [3] was 99%. The inhibition [4] was 84%, the inhibition [5] was 81% and the inhibition [6] was 80%. The inhibition [7] was 77%, the inhibition [8] was 91% and the inhibition [9] was 54%. It also gave an inhibition [10] of 100%, an inhibition [11] of 83% and an inhibition [12] of 88%. For the same compound, the inhibition [13] was 100%.

O=C(Nc1cccc([C@H]2CCCN(c3ncnc4[nH]ccc34)C2)c1)Nc1ccccc1N1CCCC1 was tested, and the inhibition [14] was 57%, the inhibition [15] was 25% and the inhibition [16] was 85%. It also gave an inhibition [17] of 99%, an inhibition [18] of 55% and an inhibition [19] of 44%. For the same compound, the inhibition [20] was 7%, the inhibition [21] was 68% and the inhibition [22] was 94%. The inhibition [23] was 90%, the inhibition [24] was 0.1% and the inhibition [25] was 52%. It also gave an inhibition [26] of 69%.
